Measurements from patent US20230057568A1, “COMPOUNDS FOR TREATING FAMILIAL DYSAUTONOMIA” (PTC THERAPEUTICS, INC., priority 2019, published 2023).

Test system: Elongator complex protein 1 (ELP1, also referred to as IKBKAP)
Test: IKBKAP-HTRF Assay
Type: cell-based, human
Details: FD patient-derived fibroblasts GM04589, 48 hours incubation; for EC2x for IKBKAP protein expression (concentration producing two times the amount of IKBKAP protein vs DMSO vehicle control): 7-point concentration curve; for MFI (maximum fold increase in IKBKAP protein abundance relative to the vehicle control): HTRF
Experimental: The assay is used for the quantitative determination of Elongator complex protein 1 (ELP1, also referred to as IKBKAP) concentration in cell lysates using the HTRF® (Homogeneous Time-Resolved Fluorescence) technology. IKBKAP is detected in a sandwich HTRF assay by use of an anti-IKAP antibody labeled with a donor and an anti-IKAP antibody labeled with an acceptor.
Cells were thawed and incubated in DMEM-10% FBS for 72 hours. Cells were trypsinized, counted, and re-suspended to a concentration of 50,000 cells/mL in DMEM-10% FBS. A 199 μL, aliquot of the cell suspensions were plated at 10,000 cells per well in a 96 well microtiter plate and incubated for 3 to 5 hours. […] Test compounds were serially diluted 3.16-fold in 100% DMSO to generate a 7-point concentration curve. A 1 μL aliquot of 200× compound solution was transferred to cell-containing wells, and cells were incubated for 48 hours in a cell culture incubator (37° C., 5% CO2, 100% relative humidity). Triplicate samples were set up for each compound concentration. After 48 hours, the supernatant was removed from the cells and 50 μL of the 1× LB4 lysis buffer, containing protease inhibitors, was added to the cells and incubated with shaking at room temperature for 1 hour. A 36 μL aliquot of this lysate was subsequently transferred to the 384-well plate containing 4 μL of the antibody solution (1:50 dilution of anti IKAP d2 and anti-IKAP K(9+8) in detection buffer). The 384-well plate was then centrifuged for 1 minute to bring the solutions to the bottom of the plate and incubated overnight at 4° C. Fluorescence for each well of the plate at 665 nm and 620 nm was measured was on the EnVision plate reader (Perkin Elmer). The AF for each sample is calculated by: […]
wherein Signal is the normalized fluorescence for each sample well and Blank is the average normalized average fluorescence for the Blank control wells.
The maximum fold increase (MFI) in IKBKAP protein abundance for compounds of Formula (I) or a form thereof relative to the vehicle control are provided in Table 1. MFI was calculated by dividing the AF value for each sample well by the sample AF for the vehicle control wells.
The EC2× for IKBKAP protein expression obtained from the 7-point concentration curve generated for each test compound according to the protocol in Biological Example 1 are also provided in Table 1. The term “EC2× for IKBKAP protein expression” is defined as the concentration of test compound that is effective in producing two times the amount of IKBKAP protein in a FD patient cell compared to the amount produced from the DMSO vehicle control.

SMILES	EC2x for IKBKAP protein expression (concentration producing two times the amount of IKBKAP protein vs DMSO vehicle control)	MFI (maximum fold increase in IKBKAP protein abundance relative to the vehicle control)
Cc1nc(NCc2ccco2)c2sc(C[C@H](C)N)c(C)c2n1 [Cpd 15, 6-[(2S)-2-aminopropyl]-N-[(furan-2-yl)methyl]-2,7-dimethylthieno[3,2-d]pyrimidin-4-amine]	**** (between >0.005 μM and ≤0.02 μM)	***** (>4.9)
Cc1c([C@H](C)N)sc2c(NCc3ccco3)nc(Cl)nc12 [Cpd 47, 6-[(1S)-1-aminoethyl]-2-chloro-N-[(furan-2-yl)methyl]-7-methylthieno[3,2-d]pyrimidin-4-amine]	*** (between >0.02 μM and ≤0.5 μM)	*** (between >2.9 and <3.9)
Cc1c(C[C@H](C)N)sc2c(NCc3ncccc3F)nc(Cl)nc12 [Cpd 59, 6-[(2S)-2-aminopropyl]-2-chloro-N-[(3-fluoropyridin-2-yl)methyl]-7-methylthieno[3,2-d]pyrimidin-4-amine]	*** (between >0.02 μM and ≤0.5 μM)	**** (between >3.9 and <4.9)
Cc1c(C[C@@H](C)CN)sc2c(NCc3ccco3)nc(Cl)nc12 [Cpd 72, 6-[(2R)-3-amino-2-methylpropyl]-2-chloro-N-[(furan-2-yl)methyl]-7-methylthieno[3,2-d]pyrimidin-4-amine]	*** (between >0.02 μM and ≤0.5 μM)	*** (between >2.9 and <3.9)
Cc1c(C[C@H](C)N)sc2c(NCc3ncncc3F)nc(Cl)nc12 [Cpd 98, 6-[(2S)-2-aminopropyl]-2-chloro-N-[(5-fluoropyrimidin-4-yl)methyl]-7-methylthieno[3,2-d]pyrimidin-4-amine]	**** (between >0.005 μM and ≤0.02 μM)	***** (>4.9)
Cc1c(C[C@H](C)N)sc2c(NCc3cncs3)nc(Cl)nc12 [Cpd 74, 6-[(2S)-2-aminopropyl]-2-chloro-7-methyl-N-[(1,3-thiazol-5-yl)methyl]thieno[3,2-d]pyrimidin-4-amine]	*** (between >0.02 μM and ≤0.5 μM)	**** (between >3.9 and <4.9)
Cc1ccoc1CNc1nc(Cl)nc2c(C)c(C[C@H](C)N)sc12 [Cpd 30, 6-[(2S)-2-aminopropyl]-2-chloro-7-methyl-N-[(3-methylfuran-2-yl)methyl]thieno[3,2-d]pyrimidin-4-amine]	*** (between >0.02 μM and ≤0.5 μM)	**** (between >3.9 and <4.9)
COC[C@H](N)Cc1sc2c(NCc3ccco3)nc(Cl)nc2c1C [Cpd 76, 6-[(2R)-2-amino-3-methoxypropyl]-2-chloro-N-[(furan-2-yl)methyl]-7-methylthieno[3,2-d]pyrimidin-4-amine]	***** (<0.005 μM)	***** (>4.9)
C[C@H](N)Cc1cc2nc(Cl)nc(NCc3cccs3)c2s1 [Cpd 14, 6-[(2S)-2-aminopropyl]-2-chloro-N-[(thiophen-2-yl)methyl]thieno[3,2-d]pyrimidin-4-amine]	**** (between >0.005 μM and ≤0.02 μM)	***** (>4.9)
Cc1csc2c(NCc3ccncc3)nc(Cl)nc12 [Cpd 23, 2-chloro-7-methyl-N-[(pyridin-4-yl)methyl]thieno[3,2-d]pyrimidin-4-amine]	*** (between >0.02 μM and ≤0.5 μM)	***** (>4.9)
COc1c(C[C@@H](N)CO)sc2c(NCc3cccs3)nc(Cl)nc12 [Cpd 99, (2R)-2-amino-3-(2-chloro-7-methoxy-4-{[(thiophen-2-yl)methyl]amino}thieno[3,2-d]pyrimidin-6-yl)propan-1-ol]	**** (between >0.005 μM and ≤0.02 μM)	*** (between >2.9 and <3.9)
Clc1nc(NCc2ccncc2)c2sccc2n1 [Cpd 1, 2-chloro-N-[(pyridin-4-yl)methyl]thieno[3,2-d]pyrimidin-4-amine]	* (EC2×>1 μM)	**** (between >3.9 and <4.9)
C[C@H](N)Cc1sc2c(NCc3ccco3)nc(Cl)nc2c1Br [Cpd 40, 6-[(2S)-2-aminopropyl]-7-bromo-2-chloro-N-[(furan-2-yl)methyl]thieno[3,2-d]pyrimidin-4-amine]	***** (<0.005 μM)	***** (>4.9)
Clc1nc(NCc2ccco2)c2scc(Br)c2n1 [Cpd 42, 7-bromo-2-chloro-N-[(furan-2-yl)methyl]thieno[3,2-d]pyrimidin-4-amine]	*** (between >0.02 μM and ≤0.5 μM)	***** (>4.9)
CC[C@H](N)Cc1sc2c(NCc3ccncc3F)nc(Cl)nc2c1C [Cpd 53, 6-[(2S)-2-aminobutyl]-2-chloro-N-[(3-fluoropyridin-4-yl)methyl]-7-methylthieno[3,2-d]pyrimidin-4-amine]	***** (<0.005 μM)	***** (>4.9)
C[C@H](N)c1sc2c(NCc3ccco3)nc(-c3ccccc3)nc2c1-c1ccccc1 [Cpd 61, 6-[(1S)-1-aminoethyl]-N-[(furan-2-yl)methyl]-2,7-diphenylthieno[3,2-d]pyrimidin-4-amine]	* (EC2×>1 μM)	* (MFI<1.9)
Cc1c(C[C@H](C)N)sc2c(NCc3c(F)cncc3F)nc(Cl)nc12 [Cpd 64, 6-[(2S)-2-aminopropyl]-2-chloro-N-[(3,5-difluoropyridin-4-yl)methyl]-7-methylthieno[3,2-d]pyrimidin-4-amine]	**** (between >0.005 μM and ≤0.02 μM)	***** (>4.9)
